Consider ten molecules from ChEMBL document CHEMBL1201862, “PubChem BioAssay data set” (2004).

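Interpolation was linear, between the two tested concentrations surrounding the appropriate level; five concentrations were tested over 48 hours in 96-well plates. The concentration for 50% growth inhibition is given as GI50.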 Activity calls are given as the source filed them. Cut-off read from the data, not from the text of the source: active = GI50 up to about 1.1 µM and inactive = higher.

Among the test systems are SK-MEL-5; U-251; HOP-92; A549; SNB-75; SNB-19; LOX IMVI; BT-549; SN12C; HT-29; SK-MEL-28; HCT-116; SK-MEL-2; SF-268; SW-620; NCI-H226; PC-3; HCT-15; HL-60; HOP-62.
Holding throughout (assay): NCI tumour cell line growth inhibition, 48 h

In the case of `CC12CC(=O)C3C(CCC4=CC(=O)CCC43C)C1CC=C2CC(=O)O` (stereo not given), the GI50 with SK-MEL-5, with U-251, in the test with HOP-92, with A549, in the test with SNB-75 and with SNB-19 was > 100 µM (inactive) each time. For the same molecule, the GI50 with LOX IMVI, in the test with BT-549, in the test on SN12C, in the test on HT-29, with SK-MEL-28 and in the test on HCT-116 was > 100 µM (inactive) throughout. Also, the GI50 with SK-MEL-2 is > 100 µM (inactive); in the test on SF-268, > 100 µM (inactive); with SW-620 it was > 100 µM (inactive); with NCI-H226 it was > 100 µM (inactive); in the test with PC-3, > 100 µM (inactive); in the test on HCT-15, > 100 µM. Besides, the GI50 in the test on HL-60 and in the test on HOP-62 was > 100 µM (inactive) each time.
For `CCCC(=O)NC1CCc2cc(OC)c(OC)c(OC)c2-c2ccc(OC)c(=O)cc21` (stereo not given), the GI50 in the test on SK-MEL-5 is 0.000356 µM (active); with U-251, 0.000344 µM (active); in the test on HOP-92, 0.447 µM (active); in the test with A549 it was 0.00538 µM (active); in the test with SNB-75, 1.82 µM (inactive); in the test on SNB-19, 0.000519 µM (active). For the same molecule, the GI50 was 0.00045 µM (active) in the test on LOX IMVI; 0.01 µM (active) in the test on BT-549; 0.000782 µM (active) with SN12C; 0.00036 µM (active) in the test with HT-29; 0.01 µM (active) in the test on SK-MEL-28; 0.000361 µM (active) in the test with HCT-116. For the same molecule, the GI50 in the test with SK-MEL-2 was 0.01 µM (active); with SF-268 it was 0.00157 µM (active); with SW-620, 0.000481 µM (active); with NCI-H226, 0.000771 µM (active); in the test with PC-3, 0.000731 µM (active); in the test on HCT-15, 0.00637 µM. The GI50 in the test with HL-60 is 0.000321 µM (active); with HOP-62, 0.000679 µM (active).
On to `O=[N+]([O-])/C=C/c1ccc2ccccc2c1`, for which the GI50 was 3.19 µM (inactive) in the test with SK-MEL-5; 1.92 µM (inactive) in the test on U-251; 6.62 µM (inactive) in the test with HOP-92; 8.05 µM (inactive) in the test with A549; 2 µM (inactive) with SNB-75; 2.19 µM (inactive) in the test with SNB-19. Besides, the GI50 in the test on LOX IMVI was 1.87 µM (inactive); in the test with BT-549, 2.74 µM (inactive); with SN12C, 5.64 µM (inactive); with HT-29, 2.53 µM (inactive); with SK-MEL-28 it was 2.23 µM (inactive); in the test on HCT-116, 2.73 µM (inactive). Moreover, the GI50 in the test with SK-MEL-2 was 22.6 µM (inactive); with SF-268 it was 4.57 µM (inactive); with SW-620, 2.47 µM (inactive); in the test with NCI-H226, 7.89 µM (inactive); with PC-3, 6.49 µM (inactive); with HCT-15, 2.22 µM. The values for the GI50 with HL-60 and in the test with HOP-62 were 2.37 µM (inactive) and 5.53 µM (inactive), respectively.
Take `Cn1c(=O)c2c(nc(Nc3ccc(Cl)cc3)n3c(=O)n(-c4ccccc4)c(=O)n23)n(C)c1=O`: the GI50 in the test on SK-MEL-5 is > 100 µM (inactive); in the test on U-251, > 100 µM (inactive); in the test on HOP-92, > 100 µM (inactive); in the test with A549, > 100 µM (inactive); in the test with SNB-75, 15.5 µM (inactive); with SNB-19 it was > 100 µM (inactive). The GI50 in the test with LOX IMVI, in the test on BT-549, in the test with SN12C, in the test with HT-29, in the test with SK-MEL-28 and in the test on HCT-116 was > 100 µM (inactive) in each case. Further, the GI50 is > 100 µM (inactive) in the test with SK-MEL-2; > 100 µM (inactive) in the test with SF-268; > 100 µM (inactive) with SW-620; > 100 µM (inactive) with NCI-H226; > 100 µM (inactive) in the test with PC-3; > 100 µM in the test with HCT-15. For the same molecule, the GI50 in the test with HL-60 and in the test on HOP-62 was > 100 µM (inactive) in each case.
With `CCCCCCCCC[C@@H]1C[C@@H]2CCC3C(C(=O)OC)=C(C)N=C(N1)N32` (stereo not given in full), the GI50 with SK-MEL-5 is 5.32 µM (inactive); in the test on U-251, 3.27 µM (inactive); in the test on HOP-92, 10 µM (inactive); in the test on A549, 12.3 µM (inactive); in the test on SNB-75, 5.71 µM (inactive); in the test with SNB-19, 4.18 µM (inactive). Besides, the GI50 is 9.86 µM (inactive) in the test on LOX IMVI; 10.6 µM (inactive) in the test on BT-549; 14.6 µM (inactive) in the test with SN12C; 4.25 µM (inactive) in the test on HT-29; 21 µM (inactive) in the test on SK-MEL-28; 4.25 µM (inactive) with HCT-116. Besides, the GI50 in the test with SK-MEL-2 was 11.1 µM (inactive); in the test on SF-268, 5.05 µM (inactive); in the test on SW-620 it was 15.6 µM (inactive); in the test on NCI-H226 it was 6.98 µM (inactive); in the test on PC-3, 3.64 µM (inactive); in the test on HCT-15 it was 16.5 µM. Further, the GI50 was 3.47 µM (inactive) in the test on HL-60 and 6.17 µM (inactive) in the test with HOP-62.
`Cc1c(OCc2cccc3ccccc23)ccc2c(=O)cc(SCCN3CCOCC3)oc12`: the GI50 with SK-MEL-5, with U-251, in the test with HOP-92, with A549, in the test with SNB-75 and in the test with SNB-19 was > 100 µM (inactive) in each case. Also, the GI50 in the test with LOX IMVI, in the test with BT-549, in the test on SN12C, in the test with HT-29, in the test with SK-MEL-28 and in the test with HCT-116 was > 100 µM (inactive) in each case. For the same molecule, the GI50 in the test with SK-MEL-2 is > 100 µM (inactive); in the test on SF-268, > 100 µM (inactive); in the test with SW-620, > 100 µM (inactive); with NCI-H226, > 100 µM (inactive); in the test with PC-3 it was > 100 µM (inactive); in the test with HCT-15, > 100 µM. Also, the GI50 in the test on HL-60 and in the test on HOP-62 was > 100 µM (inactive) each time.
As for `CCc1nc(N)nc(N)c1-c1ccc([N+](=O)[O-])c(Cl)c1`, the GI50 in the test with SK-MEL-5 was 2.19 µM (inactive); with U-251 it was 3.1 µM (inactive); with HOP-92, 18.2 µM (inactive); in the test with A549, 0.416 µM (active); in the test with SNB-75, 28.2 µM (inactive); in the test on SNB-19 it was 17.9 µM (inactive). The GI50 with LOX IMVI is 1.44 µM (inactive); in the test on BT-549, 14.9 µM (inactive); in the test with SN12C it was 13.3 µM (inactive); in the test on HT-29, 1.78 µM (inactive); in the test on SK-MEL-28, 36.5 µM (inactive); in the test on HCT-116 it was 0.457 µM (active). Further, the GI50 was 34.7 µM (inactive) in the test on SK-MEL-2; 4.29 µM (inactive) in the test on SF-268; 1.49 µM (inactive) with SW-620; 30.4 µM (inactive) with NCI-H226; 1.87 µM (inactive) with PC-3; 1.35 µM in the test with HCT-15. Further, the values for the GI50 with HL-60 and in the test with HOP-62 were 0.855 µM (active) and 7.53 µM (inactive), respectively.
In the case of `CCOC(=O)/C(=C\c1cccc(C)c1)C(C)=O`, the GI50 was 16.6 µM (inactive) with SK-MEL-5; 13.1 µM (inactive) in the test with U-251; 6.7 µM (inactive) in the test on HOP-92; 30 µM (inactive) in the test on A549; 4.94 µM (inactive) in the test with SNB-75; 17.7 µM (inactive) in the test with SNB-19. The GI50 in the test on LOX IMVI was 13.6 µM (inactive); with BT-549, 10.8 µM (inactive); in the test on SN12C it was 17.1 µM (inactive); in the test with HT-29 it was 17.9 µM (inactive); with SK-MEL-28, 12.6 µM (inactive); in the test on HCT-116 it was 16.7 µM (inactive). Moreover, the GI50 in the test with SK-MEL-2 was 10.1 µM (inactive); with SF-268 it was 15.2 µM (inactive); with SW-620, 12.5 µM (inactive); with NCI-H226, 24.9 µM (inactive); in the test with PC-3 it was 10.5 µM (inactive); in the test with HCT-15, 15.6 µM. For the same molecule, the results for the GI50 with HL-60 and in the test on HOP-62 were 3.98 µM (inactive) and 24.5 µM (inactive), respectively.
For `O=C1c2ccccc2S(=O)(=O)c2c1cccc2[N+](=O)[O-]`, the GI50 is 0.643 µM (active) in the test with SK-MEL-5; 2.65 µM (inactive) in the test on U-251; 4.49 µM (inactive) in the test on HOP-92; 4.7 µM (inactive) in the test with A549; 3.42 µM (inactive) with SNB-75; > 10 µM (inactive) in the test on SNB-19. For the same molecule, the GI50 in the test on LOX IMVI is 2.14 µM (inactive); in the test on BT-549, 3.45 µM (inactive); in the test with SN12C, 2.2 µM (inactive); in the test on HT-29 it was 2.57 µM (inactive); in the test with SK-MEL-28, 2 µM (inactive); with HCT-116, 1.3 µM (inactive). Moreover, the GI50 was 5.85 µM (inactive) in the test on SK-MEL-2; 3.05 µM (inactive) with SF-268; 1.61 µM (inactive) in the test with SW-620; > 7.26 µM (inactive) with NCI-H226; 3.01 µM (inactive) in the test on PC-3; 1.35 µM in the test on HCT-15. Also, the GI50 in the test on HL-60 was 1.33 µM (inactive); in the test on HOP-62 it was 5.32 µM (inactive).
In the case of `COc1ccc(-c2csc3c2-n2cccc2C3=O)cc1`, the GI50 was 0.0581 µM (active) in the test with SK-MEL-5; 0.0326 µM (active) with U-251; 3.12 µM (inactive) with HOP-92; 0.159 µM (active) with A549; 0.0964 µM (active) in the test with SNB-75; 0.0745 µM (active) in the test with SNB-19. Also, the GI50 is 0.0458 µM (active) in the test on LOX IMVI; 8.93 µM (inactive) in the test with BT-549; 0.0885 µM (active) with SN12C; 0.028 µM (active) in the test on HT-29; 0.406 µM (active) in the test on SK-MEL-28; 0.0461 µM (active) in the test with HCT-116. For the same molecule, the GI50 was 0.366 µM (active) with SK-MEL-2; 1.75 µM (inactive) in the test with SF-268; < 0.0232 µM (active) with SW-620; 4.46 µM (inactive) in the test on NCI-H226; < 0.0367 µM (active) in the test with PC-3; 0.0653 µM with HCT-15. Further, the GI50 in the test with HL-60 was < 0.0176 µM (active); in the test with HOP-62, 0.0656 µM (active).
